Results: the supplement of paper PMC11061612

Key:
Olaparib = compound: O=C(c1cc(Cc2n[nH]c(=O)c3ccccc23)ccc1F)N1CCN(C(=O)C2CC2)CC1 [Olaparib]
How it was run: (§1)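 Following 24 hours at 37°C and 5% CO2, cancer cell lines in 1536-well plates with 7.5 μl DMEM/F12 or RPMI and 10% FBS were dosed for 72 hours, final DMSO typically being 0.2%. CellTiter-Glo 2.0 luminescence, scaled between blank-well and DMSO-well means, gave the viability readout. Dose responses were fitted to a two-parameter logistic curve with a non-linear mixed effects model, and the single-agent IC50 was derived from this fit.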

Savolitinib = compound: C[C@@H](c1ccc2nccn2c1)n1nnc2ncc(-c3cnn(C)c3)nc21 [Savolitinib]; conditions: max 1 µM
How it was run: as §1

AZD8186 = compound: C[C@@H](Nc1cc(F)cc(F)c1)c1cc(C(=O)N(C)C)cc2c(=O)cc(N3CCOCC3)oc12 [AZD8186]; conditions: max 3 µM
How it was run: as §1

AZD0156 = compound: CN(C)CCCOc1ccc(-c2ccc3ncc4c(c3c2)n(C2CCOCC2)c(=O)n4C)cn1 [AZD0156]; conditions: max 3 µM
How it was run: as §1

Crizotinib = compound: C[C@@H](Oc1cc(-c2cnn(C3CCNCC3)c2)cnc1N)c1c(Cl)ccc(F)c1Cl [Crizotinib]; conditions: max 10 µM
How it was run: as §1

Alisertib = compound: COc1cc(Nc2ncc3c(n2)-c2ccc(Cl)cc2C(c2c(F)cccc2OC)=NC3)ccc1C(=O)O [Alisertib]; conditions: max 10 µM
How it was run: as §1

SN-38 = compound: CCc1c2c(nc3ccc(O)cc13)-c1cc3c(c(=O)n1C2)COC(=O)[C@]3(O)CC [SN-38]; conditions: max 0.3 µM
How it was run: as §1

AZD7648 = compound: Cc1cc2ncnn2cc1Nc1ncc2c(n1)n(C1CCOCC1)c(=O)n2C [AZD7648]; conditions: max 10 µM
How it was run: as §1

Selumetinib = compound: Cn1cnc2c(F)c(Nc3ccc(Br)cc3Cl)c(C(=O)NOCCO)cc21 [Selumetinib]; conditions: max 10 µM
How it was run: as §1

AZD4320 = compound: CN(CC[C@H](CSC1=CC=CC=C1)NC2=C(C=C(C=C2)S(=O)(=O)NC(=O)C3=CC=C(C=C3)N4CCC(CC4)[C@H](C5=CC=CC=C5C6=CC=C(C=C6)Cl)O)S(=O)(=O)C(F)(F)F)CCO [AZD4320]; conditions: max 1 µM
How it was run: as §1

Dasatinib = compound: CC1=C(C(=CC=C1)Cl)NC(=O)C2=CN=C(S2)NC3=CC(=NC(=N3)C)N4CCN(CC4)CCO [Dasatinib]; conditions: max 2 µM
How it was run: as §1

Venetoclax = compound: CC1(C)CCC(CN2CCN(c3ccc(C(=O)NS(=O)(=O)c4ccc(NCC5CCOCC5)c([N+](=O)[O-])c4)c(Oc4cnc5[nH]ccc5c4)c3)CC2)=C(c2ccc(Cl)cc2)C1 [Venetoclax]; conditions: max 1 µM
How it was run: as §1

Lapatinib = compound: CS(=O)(=O)CCNCc1ccc(-c2ccc3ncnc(Nc4ccc(OCc5cccc(F)c5)c(Cl)c4)c3c2)o1 [Lapatinib]; conditions: max 10 µM
How it was run: as §1

Capivasertib = compound: C1CN(CCC1(C(=O)N[C@@H](CCO)C2=CC=C(C=C2)Cl)N)C3=NC=NC4=C3C=CN4 [Capivasertib]
How it was run: as §1

AZD5991 = compound: Cc1c2c(nn1C)CSCc1cc(n(C)n1)CSc1cc(c3ccccc3c1)OCCCc1c(C(=O)O)n(C)c3c-2c(Cl)ccc13 [AZD5991]; conditions: max 1 µM
How it was run: as §1

Gefitinib = compound: COc1cc2ncnc(Nc3ccc(F)c(Cl)c3)c2cc1OCCCN1CCOCC1 [Gefitinib]; conditions: max 10 µM
How it was run: as §1

SG3199 = compound: CC1=CN2[C@@H](C1)C=NC3=CC(=C(C=C3C2=O)OC)OCCCCCOC4=C(C=C5C(=C4)N=C[C@@H]6CC(=CN6C5=O)C)OC [SG3199]; conditions: max 0.001 µM
How it was run: as §1

Palbociclib = compound: CC(=O)c1c(C)c2cnc(Nc3ccc(N4CCNCC4)cn3)nc2n(C2CCCC2)c1=O [Palbociclib]; conditions: max 10 µM
How it was run: as §1

AZD6738 = compound: C[C@@H]1COCCN1C2=NC(=NC(=C2)C3(CC3)[S@](=N)(=O)C)C4=C5C=CNC5=NC=C4 [AZD6738]; conditions: max 10 µM
How it was run: as §1

Trametinib = compound: CC(=O)Nc1cccc(-n2c(=O)n(C3CC3)c(=O)c3c(Nc4ccc(I)cc4F)n(C)c(=O)c(C)c32)c1 [Trametinib]; conditions: max 1 µM
How it was run: as §1

Prexasertib = compound: COc1cccc(OCCCN)c1-c1cc(Nc2cnc(C#N)cn2)n[nH]1 [Prexasertib]; conditions: max 1 µM
How it was run: as §1

Doxorubicin = compound: COc1cccc2c1C(=O)c1c(O)c3c(c(O)c1C2=O)C[C@@](O)(C(=O)CO)C[C@@H]3O[C@H]1C[C@H](N)[C@H](O)[C@H](C)O1 [Doxorubicin]; conditions: max 1 µM
How it was run: as §1

Taselisib = compound: Cc1nc(-c2cn3c(n2)-c2ccc(-c4cnn(C(C)(C)C(N)=O)c4)cc2OCC3)n(C(C)C)n1 [Taselisib]; conditions: max 10 µM
How it was run: as §1

AZD1390 = compound: CC(C)n1c(=O)n(C)c2cnc3cc(F)c(-c4ccc(OCCCN5CCCCC5)nc4)cc3c21 [AZD1390]; conditions: max 0.3 µM
How it was run: as §1

AZD2811 = compound: CCN(CCO)CCCOc1ccc2c(Nc3cc(CC(=O)Nc4cccc(F)c4)[nH]n3)ncnc2c1 [AZD2811]; conditions: max 1 µM
How it was run: as §1

AZD5153 = compound: COc1nnc2ccc(N3CCC(c4ccc(OCCN5CCN(C)C(=O)[C@H]5C)cc4)CC3)nn12 [AZD5153]; conditions: max 1 µM
How it was run: as §1

AZD1775 = compound: C=CCn1c(=O)c2cnc(Nc3ccc(N4CCN(C)CC4)cc3)nc2n1-c1cccc(C(C)(C)O)n1 [AZD1775]; conditions: max 3 µM
How it was run: as §1

Cell Line	IC50, cell viability 72 h (Olaparib; max 10 µM)	IC50, cell viability 72 h (Savolitinib)	IC50, cell viability 72 h (AZD8186)	IC50, cell viability 72 h (AZD0156)	IC50, cell viability 72 h (Crizotinib)	IC50, cell viability 72 h (Alisertib)	IC50, cell viability 72 h (SN-38)	IC50, cell viability 72 h (AZD7648)	IC50, cell viability 72 h (Selumetinib)	IC50, cell viability 72 h (AZD4320)	IC50, cell viability 72 h (Dasatinib)	IC50, cell viability 72 h (Venetoclax)	IC50, cell viability 72 h (Lapatinib)	IC50, cell viability 72 h (Capivasertib; max 10 µM)	IC50, cell viability 72 h (AZD5991)	IC50, cell viability 72 h (Gefitinib)	IC50, cell viability 72 h (SG3199)	IC50, cell viability 72 h (Palbociclib)	IC50, cell viability 72 h (AZD6738)	IC50, cell viability 72 h (Trametinib)	IC50, cell viability 72 h (Prexasertib)	IC50, cell viability 72 h (Doxorubicin)	IC50, cell viability 72 h (Taselisib)	IC50, cell viability 72 h (AZD1390)	IC50, cell viability 72 h (AZD2811)	IC50, cell viability 72 h (AZD5153)	IC50, cell viability 72 h (AZD1775)	IC50, cell viability 72 h (Olaparib; max 3 µM)	IC50, cell viability 72 h (Capivasertib; max 3 µM)
8505C (Thyroid Gland Carcinoma)	> 10000 nM	> 1000 nM	> 3000 nM	> 3000 nM	> 10000 nM	> 10000 nM	23.6 nM	> 10000 nM	> 10000 nM	> 1000 nM	> 2000 nM	> 1000 nM	> 10000 nM	> 10000 nM	> 1000 nM	> 10000 nM	> 1 nM	> 10000 nM	> 10000 nM	> 1000 nM	829 nM	565 nM	> 10000 nM	> 300 nM	> 1000 nM	> 1000 nM	1600 nM	–	–
BICR10 (Oral Cavity Carcinoma)	–	–	–	> 3000 nM	–	–	–	–	–	–	–	–	–	–	–	–	–	–	–	–	–	–	–	–	–	–	413 nM	> 3000 nM	2520 nM
CHSA8926 (Chondrosarcoma)	> 10000 nM	> 1000 nM	2240 nM	> 3000 nM	9160 nM	> 10000 nM	> 300 nM	> 10000 nM	> 10000 nM	> 1000 nM	60.8 nM	> 1000 nM	> 10000 nM	> 10000 nM	> 1000 nM	> 10000 nM	> 1 nM	> 10000 nM	> 10000 nM	–	> 1000 nM	703 nM	1520 nM	> 300 nM	> 1000 nM	> 1000 nM	1270 nM	–	–
DAN-G (Pancreatic Carcinoma)	> 10000 nM	> 1000 nM	> 3000 nM	> 3000 nM	> 10000 nM	> 10000 nM	> 300 nM	> 10000 nM	> 10000 nM	> 1000 nM	> 2000 nM	> 1000 nM	> 10000 nM	> 10000 nM	> 1000 nM	> 10000 nM	> 1 nM	> 10000 nM	5490 nM	675 nM	72.7 nM	> 1000 nM	718 nM	> 300 nM	> 1000 nM	> 1000 nM	405 nM	–	–
ESO51 (Esophageal Adenocarcinoma)	> 10000 nM	14.2 nM	> 3000 nM	> 3000 nM	186 nM	> 10000 nM	> 300 nM	> 10000 nM	> 10000 nM	> 1000 nM	> 2000 nM	> 1000 nM	> 10000 nM	> 10000 nM	> 1000 nM	> 10000 nM	> 1 nM	> 10000 nM	1790 nM	35 nM	42.4 nM	> 1000 nM	> 10000 nM	> 300 nM	> 1000 nM	354 nM	298 nM	–	–
